# Experimental data reported in US20230390222A1, “Amyloid-Binding Peptoids with Broad-Spectrum Antiviral, Antibacterial, and Antifungal Activity” (The Board of Trustees of the Leland Stanford Junior …, priority 2021, published 2023).
# “Also recorded” adds a separate entry of the source.
# Key:
# [1] = ThT fibril formation assay comparing kinetics of Aβ40 wild-type and Aβ40-E22Δ (Osaka) mutant; settings: standard ThT fibril formation conditions, peptide alone
# Experimental: FIG. 5 depicts a ThT fibril formation assay comparing fibril formation kinetics of Aβ40 wild-type and the Aβ40-E22Δ (Osaka) FAD mutant.
# FIG. 5 illustrates exemplary data of preliminary experiments in which Aβ40-E22Δ was synthesized and subjected to standard conditions utilized in ThT fibril formation assays. FIG. 5 illustrates that the deletion of the E22 residue leads to a pronounced acceleration of fibril formation, which dropped from 196±7 min with Aβ40-WT to 38±1 min with Aβ40-E22Δ. The Aβ40-E22Δ mutant is much more amyloidogenic than Aβ40-WT, which may complicate efforts to block its amyloidogenicity.
# Aβ40 = target: T1, Aβ40 (Homo sapiens, UniProt P05067); test: Thioflavin T (ThT) fluorescence assay of Aβ40 fibril formation in presence of LL-37 or peptoid; format: biochemical
# T1 construct: The 40 AA long isoform, Aβ40, is formed predominantly
# P. gingivalis = test: Antimicrobial activity against P. gingivalis; format: cell-based, Porphyromonas gingivalis
# HSV-1 = test: Antiviral activity (inactivation) against HSV-1; format: cell-based, Herpes Simplex Virus-1
# P. aeruginosa = test: Activity against P. aeruginosa; format: cell-based
# S. aureus = test: Activity against S. aureus; format: cell-based
# M tuberculosis = test: Activity against M tuberculosis; format: cell-based
# C. albicans = test: Activity against C. albicans; format: cell-based
# T1 sequence (P05067 672-711 limits assumed): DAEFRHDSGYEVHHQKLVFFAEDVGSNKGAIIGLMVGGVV
substance,measurement,setting,value
"Aβ40-E22Δ: FAD-causing Aβ40 variant with deletion of E22, known as the Osaka mutation (DAEFRHDSGYEVHHQKLVFFADVGSNKGAIIGLMVGGVV; Amyloid-beta protein 40; UniProt P05067 672-711, looked up, variant E22*)",fibril formation (time) in ThT assay,[1],38 ± 1 min
Aβ40-WT: 40 amino acid long wild-type isoform of Amyloid β,fibril formation (time) in ThT assay,[1],196 ± 7 min
H-(NLys-Nspe-Nspe)4-NH2 [Peptoid 1],anti-amyloid activity (prevention of Aβ amyloid formation),"Aβ40; FIG. 1C, 20 μM peptide/peptoid concentrations",shares the same anti-amyloid activity
same,concentration with antimicrobial activity / killing P. gingivalis bacteria,P. gingivalis,4 µg/mL
same,concentration with antiviral activity / totally inactivating HSV-1 virus,HSV-1,4 µg/mL
same,activity against pathogen,P. aeruginosa,active
same,activity against pathogen,S. aureus,active
same,activity against pathogen,M tuberculosis,active
same,activity against pathogen,C. albicans,active
"LL-37: peptide produced by the human innate immune system, ~4500 g/mol, 37 amino acids",Aβ fibril formation (ThT fluorescence),Aβ40; 1:1 equimolar ratio to wildtype Aβ40,totally prevented from forming Aβ fibrils; also recorded: blocks fibril formation
same,kinetics of Aβ fibril formation (ThT fluorescence),Aβ40; lower relative (sub-stoichiometric) molar amounts vs Aβ40,slow the kinetics of fibril formation; also recorded: slows it down in a dose-dependent manner
same,final fluorescence at endpoint in ThT fibril formation assay,Aβ40; sub-stoichiometric LL-37 addition,higher fluorescence output at endpoint
